According to BindingDB's records for PubMed 8558445 (Abbott Laboratories, 1996):
pKi: −log10 of the molar value.

biological target: Neuronal acetylcholine receptor subunit alpha-4 (Homo sapiens, UniProt P43681)
Sequence (P43681 whole entry): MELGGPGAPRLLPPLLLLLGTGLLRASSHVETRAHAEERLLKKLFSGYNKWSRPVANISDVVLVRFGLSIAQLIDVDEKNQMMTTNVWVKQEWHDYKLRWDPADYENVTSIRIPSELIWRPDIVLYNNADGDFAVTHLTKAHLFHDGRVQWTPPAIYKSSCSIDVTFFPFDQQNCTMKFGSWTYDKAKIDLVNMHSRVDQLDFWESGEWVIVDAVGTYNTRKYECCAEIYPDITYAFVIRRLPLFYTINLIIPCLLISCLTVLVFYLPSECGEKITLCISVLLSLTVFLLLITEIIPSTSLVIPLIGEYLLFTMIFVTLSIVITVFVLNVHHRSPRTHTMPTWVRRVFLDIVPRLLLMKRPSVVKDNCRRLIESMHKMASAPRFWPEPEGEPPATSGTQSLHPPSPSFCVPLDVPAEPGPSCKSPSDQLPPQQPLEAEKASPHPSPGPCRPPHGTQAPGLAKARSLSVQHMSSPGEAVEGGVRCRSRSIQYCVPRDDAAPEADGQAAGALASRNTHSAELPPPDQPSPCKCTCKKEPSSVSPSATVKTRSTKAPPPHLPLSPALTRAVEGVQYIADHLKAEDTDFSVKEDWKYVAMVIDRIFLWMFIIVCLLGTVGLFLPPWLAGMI

| SMILES | pKi |
| --- | --- |
| C[N+](C)(C)CCOC(N)=O [(2-Hydroxyethyl)trimethyl ammonium chloride carbamate] | 7.17 |
| C[N+](C)(C)CCCCCCCCCC[N+](C)(C)C [Decamethonium Iodide] | 6.02 |
| C=C(C=O)C[C@H]1C[C@H](O)[C@]2(C)O[C@@H]3C[C@@H]4O[C@@H]5C[C@]6(C)O[C@]7(C)CC[C@@H]8O[C@@H]9C[C@]%10(C)O[C@@H]%11C(C)=CC(=O)O[C@H]%11C[C@H]%10O[C@H]9C[C@@H](C)[C@H]8O[C@H]7C[C@H]6O[C@@]5(C)C/C=C\[C@H]4O[C@H]3C[C@H]2O1 | 5.33 |
| CCN1C[C@]2(COC(=O)c3ccccc3-n3c(O)cc(C)c3O)CC[C@H](OC)[C@]34C5C[C@@H]6[C@@H](OC)C[C@@](O)(C5[C@H]6OC)[C@@](O)(C13)[C@@H](OC)C24 (stereo partly drawn) [[(1S,4S,5R,6S,8R,9R,13S,16S,18S)-11-ethyl-8,9-dihydroxy-4,6,16,18-tetramethoxy-11-azahexacyclo[7.7.2.1^{2,5}.0^{1,10}.0^{3,8}.0^{13,17}]nonadecan-13-yl]methyl 2-[(3S)-3-methyl-2,5-dioxopyrrolidin-1-yl]benzoate] | 5.49 |
| CN1[C@@H](C[C@@H](O)c2ccccc2)CCC[C@H]1CC(=O)c1ccccc1 [Lobeline] | 8.72 |
| O=c1cccc2n1C[C@H]1CNC[C@H]2C1 [(1S,9R)-7,11-diazatricyclo[7.3.1.0~2,7~]trideca-2,4-dien-6-one] | 9.37 |
| C[N+]1(C)CCN(c2ccccc2)CC1 [DMPP] | 7.97 |
| COc1cc2c3cc1Oc1cc(ccc1O)C[C@H]1c4c(cc(OC)c(O)c4Oc4ccc(cc4)C[C@@H]3N(C)CC2)CC[N+]1(C)C [CAS_57-94-3] | 5.46 |
| c1cncc(C2CCCCN2)c1 (stereo not drawn) [(+-)-anabasine] | 7.42 |
| CNC1(C)C2CCC(C2)C1(C)C (stereo unspecified) [Methyl-(2,3,3-trimethyl-bicyclo[2.2.1]hept-2-yl)-amine(Mecamylamine)] | < 5.00 |
| C[N+](C)(C)CC[N+]1(C)Cc2c(Cl)c(Cl)c(Cl)c(Cl)c2C1 [CAS_6243] | < 5.00 |
